Assays:
P. aeruginosa = experiment: MIC broth microdilution (CLSI); type: cell-based
Description: (§1) Minimum inhibitory concentrations for representative example compounds herein were determined by a broth microdilution method in accordance with the Clinical and Laboratory Standards Institute (CLSI) guidelines. In brief, organism suspensions were adjusted to a 0.5 McFarland standard to yield a final inoculum between 3×10^5 and 7×10^5 colony-forming units (CFU)/mL. The inoculum was prepared by suspension of a colony from an agar plate that was prepared the previous day. Compound dilutions and inoculum were prepared in sterile, cation adjusted Mueller-Hinton Broth (Beckton Dickinson).
(§2) Bacteria were suspended in sterile saline and added to each assay plate to obtain a final concentration of 5×10^5 CFU/mL. An inoculum volume of 100 μL was added to wells containing 100 μL of broth with 2-fold serial dilutions of the test compound. All inoculated microdilution trays were incubated in ambient air at 35° C. for 18-24 hours. Following incubation, the lowest concentration of the compound that prevented visible growth (OD 600 nm<0.05) is recorded was the MIC. […] Performance of the assay was monitored by the use of laboratory quality-control strains and a standard compound with a defined MIC spectrum (neomycin), in accordance with CLSI guidelines.

K. aerogenes = experiment: MIC broth microdilution (CLSI); type: cell-based; settings: strain AEAE1042, MDR Clinical isolate (CDC CRE panel), CDC AR Bank 0161
Description: as §1, §2

K. pneumoniae = experiment: MIC broth microdilution (CLSI); type: cell-based
Description: as §1, §2

A. baumannii = experiment: MIC broth microdilution (CLSI); type: cell-based
Description: as §1, §2

E. coli = experiment: MIC broth microdilution (CLSI); type: cell-based
Description: as §1, §2

S. enterica = experiment: MIC broth microdilution (CLSI); type: cell-based; settings: strain ASSE1001, MDR Clinical isolate (CDC CRE panel), CDC AR Bank 0127
Description: as §1, §2

S. aureus = experiment: MIC broth microdilution (CLSI); type: cell-based
Description: as §1, §2

C. freundii = experiment: MIC broth microdilution (CLSI); type: cell-based; settings: strain ACSP1001, MDR Clinical isolate (CDC CRE panel), CDC AR Bank 0157
Description: as §1, §2

P. mirabilis = experiment: MIC broth microdilution (CLSI); type: cell-based; settings: strain APMI1048, MDR Clinical isolate (CDC CRE panel), CDC AR Bank 0159
Description: as §1, §2

E. cloacae = experiment: MIC broth microdilution (CLSI); type: cell-based; settings: strain AECL1089, MDR Clinical isolate (CDC CRE panel), CDC AR Bank 0154
Description: as §1, §2

[1] = tested on: A. baumannii strain CDC-313; experiment: Neutropenic mouse lung infection model; type: in vivo; settings: neutropenic CD-1 male mice, FIG. 15

## NC[C@@H]1O[C@H](O[C@H]2[C@@H](O)[C@H](O[C@@H]3[C@@H](O)[C@H](N)C[C@H](N)[C@H]3O[C@H]3O[C@H](CN)[C@@H](O)[C@H](O)[C@H]3N)O[C@@H]2CO)[C@H](N)[C@@H](O)[C@@H]1O [NEO, neomycin, reference compound]
P. aeruginosa; strain NPAE0001, WT Aph(3')-IIb, QC
  Activity (MIC): − (for inactive (−) is >16 μg/mL)
P. aeruginosa; strain NPAE0002, WT Aph(3')-IIb
  Activity (MIC): + (MIC threshold for positive activity (+) is ≤16 μg/mL)
P. aeruginosa; strain NPAE0006, Efflux KO, Aph(3')-IIb
  Activity (MIC): + (MIC threshold for positive activity (+) is ≤16 μg/mL)
P. aeruginosa; strain NPAE0010, MexXY over-expressed, Aph(3')-IIb
  Activity (MIC): − (for inactive (−) is >16 μg/mL)
P. aeruginosa; strain NPAE0359, aph(3')-IIb KO (tetR)
  Activity (MIC): − (for inactive (−) is >16 μg/mL)
P. aeruginosa; strain NPAE1288, MDR Clinical isolate
  Activity (MIC): − (for inactive (−) is >16 μg/mL)
P. aeruginosa; strain NPAE1293, MDR Clinical isolate
  Activity (MIC): − (for inactive (−) is >16 μg/mL)
P. aeruginosa; strain NPAE1299, MDR Clinical isolate
  Activity (MIC): − (for inactive (−) is >16 μg/mL)
P. aeruginosa; strain NPAE1302, MDR Clinical isolate
  Activity (MIC): − (for inactive (−) is >16 μg/mL)
P. aeruginosa; strain NPAE1303, MDR Clinical isolate
  Activity (MIC): − (for inactive (−) is >16 μg/mL)
P. aeruginosa; strain NPAE1308, MDR Clinical isolate
  Activity (MIC): − (for inactive (−) is >16 μg/mL)
P. aeruginosa; strain NPAE1310, MDR Clinical isolate
  Activity (MIC): + (MIC threshold for positive activity (+) is ≤16 μg/mL)
P. aeruginosa; strain NPAE1313, MDR Clinical isolate
  Activity (MIC): − (for inactive (−) is >16 μg/mL)
P. aeruginosa; strain NPAE1316, MDR Clinical isolate
  Activity (MIC): + (MIC threshold for positive activity (+) is ≤16 μg/mL)
P. aeruginosa; strain NPAE1323, MDR Clinical isolate
  Activity (MIC): − (for inactive (−) is >16 μg/mL)
K. aerogenes
  Activity (MIC): + (MIC threshold for positive activity (+) is ≤16 μg/mL)
K. pneumoniae; strain AKPN1246, MDR Clinical isolate (CDC CRE panel), CDC AR Bank 0139
  Activity (MIC): + (MIC threshold for positive activity (+) is ≤16 μg/mL)
K. pneumoniae; strain AKPN1250, MDR Clinical isolate (CDC CRE panel), CDC AR Bank 0143
  Activity (MIC): + (MIC threshold for positive activity (+) is ≤16 μg/mL)
K. pneumoniae; strain AKPN1253, MDR Clinical isolate (CDC CRE panel), CDC AR Bank 0148
  Activity (MIC): + (MIC threshold for positive activity (+) is ≤16 μg/mL)
K. pneumoniae; strain AKPN1255, MDR Clinical isolate (CDC CRE panel), CDC AR Bank 0153
  Activity (MIC): + (MIC threshold for positive activity (+) is ≤16 μg/mL)
A. baumannii; strain NABA0006, WT parent
  Activity (MIC): + (MIC threshold for positive activity (+) is ≤16 μg/mL)
A. baumannii; strain NABA0007, ΔadeJK efflux
  Activity (MIC): + (MIC threshold for positive activity (+) is ≤16 μg/mL)
A. baumannii; strain NABA0020, AME negative strain
  Activity (MIC): + (MIC threshold for positive activity (+) is ≤16 μg/mL)
A. baumannii; strain NABA1427, MDR Clinical isolate
  Activity (MIC): − (for inactive (−) is >16 μg/mL)
A. baumannii; strain NABA1433, MDR Clinical isolate
  Activity (MIC): − (for inactive (−) is >16 μg/mL)
A. baumannii; strain NABA1434, MDR Clinical isolate
  Activity (MIC): + (MIC threshold for positive activity (+) is ≤16 μg/mL)
A. baumannii; strain NABA1436, MDR Clinical isolate
  Activity (MIC): − (for inactive (−) is >16 μg/mL)
A. baumannii; strain NABA1437, MDR Clinical isolate
  Activity (MIC): + (MIC threshold for positive activity (+) is ≤16 μg/mL)
A. baumannii; strain NABA1438, MDR Clinical isolate
  Activity (MIC): − (for inactive (−) is >16 μg/mL)
A. baumannii; strain NABA1439, MDR Clinical isolate
  Activity (MIC): − (for inactive (−) is >16 μg/mL)
A. baumannii; strain NABA1448, MDR Clinical isolate
  Activity (MIC): − (for inactive (−) is >16 μg/mL)
A. baumannii; strain NABA1449, MDR Clinical isolate
  Activity (MIC): + (MIC threshold for positive activity (+) is ≤16 μg/mL)
A. baumannii; strain NABA1450, MDR Clinical isolate
  Activity (MIC): − (for inactive (−) is >16 μg/mL)
E. coli; strain AECO1225, MDR Clinical isolate (CDC CRE panel), CDC AR Bank 0118
  Activity (MIC): + (MIC threshold for positive activity (+) is ≤16 μg/mL)
E. coli; strain AECO1226, MDR Clinical isolate (CDC CRE panel), CDC AR Bank 0119
  Activity (MIC): + (MIC threshold for positive activity (+) is ≤16 μg/mL)
E. coli; strain AECO1227, MDR Clinical isolate (CDC CRE panel), CDC AR Bank 0128
  Activity (MIC): + (MIC threshold for positive activity (+) is ≤16 μg/mL)
E. coli; strain NECO0001, WT QC
  Activity (MIC): + (MIC threshold for positive activity (+) is ≤16 μg/mL)
E. coli; strain NECO0002, WT
  Activity (MIC): + (MIC threshold for positive activity (+) is ≤16 μg/mL)
E. coli; strain NECO0003, ΔtolC
  Activity (MIC): + (MIC threshold for positive activity (+) is ≤16 μg/mL)
E. coli; strain NECO0243, empty vector
  Activity (MIC): + (MIC threshold for positive activity (+) is ≤16 μg/mL)
E. coli; strain NECO0244, AAC(6')-Ib
  Activity (MIC): + (MIC threshold for positive activity (+) is ≤16 μg/mL)
E. coli; strain NECO0245, ArmA
  Activity (MIC): + (MIC threshold for positive activity (+) is ≤16 μg/mL)
E. coli; strain NECO0289, APH(3')-Ia
  Activity (MIC): − (for inactive (−) is >16 μg/mL)
E. coli; strain NECO0302, AAC(3)-IIa
  Activity (MIC): + (MIC threshold for positive activity (+) is ≤16 μg/mL)
E. coli; strain NECO0350, AAC(2')-I
  Activity (MIC): + (MIC threshold for positive activity (+) is ≤16 μg/mL)
E. coli; strain NECO0359, ANT(4')-Ia
  Activity (MIC): + (MIC threshold for positive activity (+) is ≤16 μg/mL)
S. enterica
  Activity (MIC): + (MIC threshold for positive activity (+) is ≤16 μg/mL)
S. aureus; strain NSAU001, wild-type, QC, ATCC 29213
  Activity (MIC): + (MIC threshold for positive activity (+) is ≤16 μg/mL)
S. aureus; strain NSAU1004, MDR Clinical isolate
  Activity (MIC): + (MIC threshold for positive activity (+) is ≤16 μg/mL)
S. aureus; strain NSAU1015, MDR Clinical isolate
  Activity (MIC): + (MIC threshold for positive activity (+) is ≤16 μg/mL)
S. aureus; strain NSAU1023, MDR Clinical isolate
  Activity (MIC): − (for inactive (−) is >16 μg/mL)
S. aureus; strain NSAU1063, MDR Clinical isolate
  Activity (MIC): − (for inactive (−) is >16 μg/mL)
C. freundii
  Activity (MIC): − (for inactive (−) is >16 μg/mL)
P. mirabilis
  Activity (MIC): + (MIC threshold for positive activity (+) is ≤16 μg/mL)
E. cloacae
  Activity (MIC): + (MIC threshold for positive activity (+) is ≤16 μg/mL)

## NCC[C@H](O)C(=O)N[C@@H]1C[C@H](N)[C@@H](O[C@H]2O[C@H](CN)[C@@H](O)[C@H](O)[C@H]2O)[C@H](O)[C@H]1O[C@H]1O[C@H](CO)[C@@H](O)[C@H](N)[C@H]1O [amikacin]
[1]
  in vivo antibacterial activity against the strain: minimal activity

From US20250032524A1, “BROAD SPECTRUM AMINOGLYCOSIDES AND USES THEREOF” (REVAGENIX, INC., priority 2022, published 2025)
